Source: patent US4612302A, “Clinical use of somatostatin analogues” (Brigham and Women's Hospital, priority 1983, dated 1986)
Non-standard residues stand in square brackets, D forms with d. Residues, ends and D or L forms follow the SMILES beside them. No end group written: not given here.

Tests used:
[1] = tested on: liver injury induced by galactosamine; test: Galactosamine-induced liver injury (hepatic necrosis and inflammation) in rats; format: in vivo, female Spraque-Dawley rats; settings: 28 hr after galactosamine 1 g/kg i.p., somatostatin 250 μg, analogues 125 μg i.p.; for Liver histology (Scale: 0-4): scale 0-4, 4 = greatest damage
Protocol: (§1) All of the experiments described below were performed in female Spraque-Dawley rats (ESS Laboratories, Lynnfield, Mass.) with an initial body weight of 150-180 g, and with unlimited access to Purina laboratory chow and tap water. Control and experimental groups consisted of 3-4 rats. Each experiment was repeated at least twice and the results were pooled. Analogue I is cyclo[L-Pro-Phe-D-Trp-Lys-Thr-L-Phe]. Analogue II is cyclo[L-Phe-Phe-L-Trp-Lys-Thr-D-Phe]. These are preferred compounds for all aspects of the invention. The compound can be synthesized according to the procedure described in Veber et al., Nature, 292, 55-58 (1981), which is herein incorporated by reference. Basically, the linear peptide is prepared by a solid phase technique, for example, using a Beckman 990 peptide synthesizer following the protocol described in Strachan et al, J. Med. Chem., 22, 586-588 (1979), which is herein incorporated by reference. The linear peptide can then be cyclized by the technique of Veber et al, Proc. Natl. Acad. Sci. USA, 75, 2636-2640 (1978), which is also herein incorporated by reference. Linear or cyclic somatostatin (Serono) or a somatostatin analogue was injected under mild ether anesthesia at 50 μg in 0.5 ml of saline into the jugular vein once daily for 3 consecutive days prior to injection with carbon. Control animals were injected with the same amount of saline. In all of the carbon clearance experiments, 0.1 ml/100 g of the supernatant of centrifuged (3000 rpm/15 min) colloidal carbon (Wagner's india ink) was injected i.v. under mild ether anesthesia. Blood samples (50 μl) were obtained with heparinized glass capillaries and by puncture of the retro-orbital venous plexus at 3, 6, 12 and 24 minutes after the administration of carbon. The blood samples were lysed in 2 ml of 0.1% Na2 CO3 solution and the quantity of carbon in the blood was measured.
The liver protection studies included the effect of somatostatin and analogues on liver injury induced by galactosamine or phalloidin. Galactosamine-induced hepatic necrosis and inflammation was produced by injecting rats with 1 g/kg of galactosamine i.p. at 0 hr. Regular somatostatin was injected at 250 μg, analogues at 125 μg i.p. at -30 and […]. The animals were killed at 28 hr after galactosamine. Liver damage was measured by the elevation of serum transaminase (SGOT) and by liver histology (scale: 0-4 with 4 indicating the greatest damage).

phagocytes = test: Carbon clearance (colloidal carbon / India ink) from the blood of rats; format: in vivo, female Spraque-Dawley rats; settings: for India ink (μl/ml blood) 3 min: 3 min after i.v. colloidal carbon; for India ink (μl/ml blood) 3 min / India ink (μl/ml blood) 6 min / India ink (μl/ml blood) 12 min / India ink (μl/ml blood) 24 min: 50 μg i.v. once daily for 3 days before carbon; for India ink (μl/ml blood) 6 min: 6 min after i.v. colloidal carbon; for India ink (μl/ml blood) 12 min: 12 min after i.v. colloidal carbon; for India ink (μl/ml blood) 24 min: 24 min after i.v. colloidal carbon; for Speed of action in carbon clearance compared with somatostatin: greater carbon clearance at 6 minutes than somatostatin; for Potency in carbon clearance compared with somatostatin: lower levels of carbon at the late time intervals
Protocol: Rats were injected either with saline or with a colloidal carbon suspension, and the time required for clearing of colloidal particles from the blood stream was measured. In a comparative experiment, zymosan, an agent known to increase the activity or phagocytes, was administered instead of the somatostatin analogue. In rats which received injections of saline, the disappearance of colloidal carbon from the blood was virtually linear, an expected result based on previous studies by others. Administration of a somatostatin analogue markedly accelerated the carbon clearance, even more so than for somatostatin itself.
as §1

[2] = tested on: liver injury induced by phalloidin; test: Phalloidin-induced liver and hepatic blood vessel lesions in rats; format: in vivo; settings: phalloidin 0.12 mg per 100 g i.p.
Protocol: This toxin kills rats within about 4 hours after intraperitoneal injection. Rats injected with 0.12 mg phalloidin per 100 g body weight (i.p.) show a massive increase in liver size accompanied by hemorrhage. In a control group of rats given phalloidin but no somatostatin analogue, 22 of 24 rats died within 2-4 hours.
In both cases, rats were given saline (control), phalloidin alone, or phalloidin and a somatostatin analogue. Somatostatin analogues were given in subcutaneous injections in a solution of protamine sulfate and zinc chloride in order to prolong its effectiveness, or in normal saline.
In the biochemical experiments, the animals were also injected with Evans blue 15 min before autopsy. At autopsy the portal vein was perfused in situ with 20 ml of saline to remove blood from hepatic vaculature. Phalloidin caused a time dependent increase in the hepatic uptake of Evans blue, indicative of leakage of blood into the tissue through blood vessel lesions. Somatostatin analogue treatment virtually abolished this enhanced uptake of the dye. In the morphologic experiments, groups of rats were also injected with colloidal carbon (India ink, […] i.v.) 15 min before autopsy. At that time pieces of liver were processed for subsequent light or electron microscopic studies. […]

Compound | SGOT (U/l) [1] [U/l] | Liver histology (Scale: 0-4) [1] | India ink (μl/ml blood) 3 min (phagocytes) [μl/ml blood] | India ink (μl/ml blood) 6 min (phagocytes) [μl/ml blood] | India ink (μl/ml blood) 12 min (phagocytes) [μl/ml blood] | India ink (μl/ml blood) 24 min (phagocytes) [μl/ml blood] | Speed of action in carbon clearance compared with somatostatin (phagocytes) | Potency in carbon clearance compared with somatostatin (phagocytes) | Histologic examination of the liver after phalloidin [2] | Mortality after phalloidin ([2]; control 22 of 24 rats died)
C[C@@H](O)[C@@H]1NC(=O)[C@H](CCCCN)NC(=O)[C@@H](Cc2c[nH]c3ccccc23)NC(=O)[C@H](Cc2ccccc2)NC(=O)[C@@H]2CCCN2C(=O)[C@H](Cc2ccccc2)NC1=O [Analogue I, cyclo[L-Pro-Phe-D-Trp-Lys-Thr-L-Phe]] (cyclo(PF[dW]KTF)) | 573 ± 138 | 1.1 ± 0.1 | 12.5 ± 3.0 | 6.9 ± 0.9 | 2.6 ± 0.7 | 2.4 ± 0.5 | faster acting | more potent than somatostatin | – | –
somatostatin (AGCKNFFWKTFTSC; not fully specified (bridges); cysteine pairing not given here; UniProt P61278 103-116, looked up) [cyclic tetradecapeptide hormone, reference compound] | 1757 ± 681 | 2.6 ± 0.3 | – | – | – | – | – | – | milder vacuolization of hepatocytes and less congestion | significantly smaller number of rats
C[C@H](N)C(=O)NCC(=O)N[C@H]1CSSC[C@@H](C(=O)O)NC(=O)[C@H](CO)NC(=O)[C@H]([C@@H](C)O)NC(=O)[C@H](Cc2ccccc2)NC(=O)[C@H]([C@@H](C)O)NC(=O)[C@H](CCCCN)NC(=O)[C@H](Cc2c[nH]c3ccccc23)NC(=O)[C@H](Cc2ccccc2)NC(=O)[C@H](Cc2ccccc2)NC(=O)[C@H](CC(N)=O)NC(=O)[C@H](CCCCN)NC1=O [Regular linear somatostatin, somatostatin] | – | – | 11.7 ± 0.1 | 11.9 ± 2.6 | 5.3 ± 1.4 | 2.6 ± 0.1 | – | – | – | –
C[C@@H](O)[C@@H]1NC(=O)[C@H](CCCCN)NC(=O)[C@H](Cc2c[nH]c3ccccc23)NC(=O)[C@H](Cc2ccccc2)NC(=O)[C@H](Cc2ccccc2)NC(=O)[C@@H](Cc2ccccc2)NC1=O [Analogue II, cyclo[L-Phe-Phe-L-Trp-Lys-Thr-D-Phe]] (cyclo(FFWKT[dF])) | 700 | 1.0 | 13.2 ± 2.0 | 5.6 ± 0.5 | 3.2 ± 0.9 | 1.8 ± 0.2 | faster acting | more potent than somatostatin | – | –
